Laboratory results as given in patent US6303603A, “3-oxo-2(H)-1,2,4-triazine derivatives as ligands of 5 HT1A receptors” (Pierre Fabre Medicament, priority 1997, dated 2001).
Where a name gives a salt, the structure may show the parent alone. Read-outs that look alike come from different tables or passages of the source.

Legend:
5-HT1A [1] = molecular target: T1, 5-HT1A (Rattus norvegicus, UniProt P19327); assay: Serotoninergic (5-HT) syndrome; format: in vivo, male rat (Sprague-Dawley); set-up: carried out with the male rat (Sprague-Dawley); from tissue; host or cells: whole living rat (in vivo); conditions: po, male rat
T1 sequence (P19327 1-422): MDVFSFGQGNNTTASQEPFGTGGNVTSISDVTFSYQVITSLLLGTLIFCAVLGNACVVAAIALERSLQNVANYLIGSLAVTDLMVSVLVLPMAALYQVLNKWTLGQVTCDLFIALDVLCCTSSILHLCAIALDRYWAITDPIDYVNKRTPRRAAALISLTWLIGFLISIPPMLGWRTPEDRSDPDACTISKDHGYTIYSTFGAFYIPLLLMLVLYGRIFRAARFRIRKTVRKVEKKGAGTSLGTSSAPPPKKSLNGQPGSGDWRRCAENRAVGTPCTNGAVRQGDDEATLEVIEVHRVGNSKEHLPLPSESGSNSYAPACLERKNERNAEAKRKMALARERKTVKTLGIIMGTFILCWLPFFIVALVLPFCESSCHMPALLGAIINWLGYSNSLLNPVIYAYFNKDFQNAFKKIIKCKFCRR
Protocol: The central activity of the compounds of the invention was evaluated by their ability to provoke the 5-HT syndrome, which is characterized by:
an alternating bending and stretching of the forepaws (reciprocal fore-paw treading: FPT)
the retraction of the lower lip (lower lip on: LLR)
a position or the ventral surface of the animal is incobtact with the ground and the hind paws extended (flat body posture: FBP).
The experiments on the evaluation of the 5-HT syndrome are carried out with the male rat (Sprague-Dawley) according to the technique described by F. C. Colpaert et al. (Drug. Dev. Res, 26, 21-48, 1992) and M. S. Kleven et al. (J.P.E.T., 282, 747-759, 1997).

5-HT1A [2] = molecular target: T1, 5-HT1A; assay: Binding to the 5-HT1A receptor (displacement of [3H]8-OH-DPAT); set-up: Brains from male Sprague-Dawley 180-200 g rats; tissue Iffa Credo, France (animals); host or cells: rat brain cortex; species or system rat (male Sprague-Dawley), brain cortex; conditions: for Ki: read-out: pKi 5-HT1A (converted)
Protocol: (§1) Binding to the 5-HT1A, D2 dopaminergic and α1-adrenergic receptors:
(§2) Brains from male Sprague-Dawley 180-200 g rats [Ico: OFA SD (I.O.P.S. Caw); Iffa Credo, France], maintained at -70° C., were used in all the studies.
(§3) The affinity of the products for the various receptors was determined by displacement of radioactive ligands under the conditions summarized in Table 1.
(§4) The reaction is halted by rapid filtration, under vacuum, through Whatman GF/B filters and the tubes are rinsed with 2×5 ml of Tris-HCl 50 mM, pH 7.4, buffer at 25° C. The radioactivity collected on the filter is analyzed by liquid scintillation after addition of 4 ml of liquid scintillant (Emulsifier Safe, Packard). All the experiments are carried out in triplicate.
(§5) The inhibition constants (Ki) of the products are estimated from the displacement experimentations by using the EBDA (equilibrium binding data analysis) Radlig version 4 nonlinear regression program (Biosoft, Cambridge, UK; McPherson, 1985).
(§6) The pKi (-log Ki) values are given in the form of the mean ± SEM of at least 3 experimentations (Table 2).

α1-adrenergic receptor = assay: Binding to the α1-adrenergic receptor (displacement of [3H]Prazosin); set-up: species or system rat (male Sprague-Dawley), brain cortex; conditions: rat cortex, 30 min, 23 °C, mean of at least 3 experimentations
Protocol: as §1, §2, §3, §4, §5, §6
Experimental conditions for binding to the receptors
[^3 H] ligand Incubation binding
Concen- Tissue Temper- Concen-
Binding KD tration Concen- Time ature tration
site (nM) (nM) Type tration (min) (° C.) Product (μM)
Buffers: (A) Tris HCl 50 mM pH 7.4, pargyline 10 μM, CaCl2 4 mM,
0.1% ascorbic acid; (B) Tris HCl 50 mM pH 7.4, NaCl 120 mM, KCl 5 mM; (C)

D2 dopaminergic receptor = molecular target: T2, D2 dopaminergic receptor (Rattus norvegicus, UniProt P61169); assay: Binding to the D2 dopaminergic receptor (displacement of [3H]YM-09151-2); set-up: species or system rat (male Sprague-Dawley), brain striatum; conditions: read-out: pKi D2 (converted)
T2 construct: Brains from male Sprague-Dawley 180-200 g rats; tissue Iffa Credo, France (animals); host or cells: rat brain striatum
Protocol: as §1, §2, §3, §4, §5, §6

[3] = Antidepressant activity: forced swimming test; format: in vivo; conditions: po, percentage of animals with significant decrease vs control (p<0.05), read-out: ED50 (decrease in the immobility time)
[4] = flat body posture (FBP), read-out: 5-HT syndrome ED50 FBP
[5] = lower lip retraction (LLR), read-out: 5-HT syndrome ED50 LLR
[6] = reciprocal fore-paw treading (FPT), read-out: 5-HT syndrome ED50 FPT

T2 sequence (P61169 whole entry): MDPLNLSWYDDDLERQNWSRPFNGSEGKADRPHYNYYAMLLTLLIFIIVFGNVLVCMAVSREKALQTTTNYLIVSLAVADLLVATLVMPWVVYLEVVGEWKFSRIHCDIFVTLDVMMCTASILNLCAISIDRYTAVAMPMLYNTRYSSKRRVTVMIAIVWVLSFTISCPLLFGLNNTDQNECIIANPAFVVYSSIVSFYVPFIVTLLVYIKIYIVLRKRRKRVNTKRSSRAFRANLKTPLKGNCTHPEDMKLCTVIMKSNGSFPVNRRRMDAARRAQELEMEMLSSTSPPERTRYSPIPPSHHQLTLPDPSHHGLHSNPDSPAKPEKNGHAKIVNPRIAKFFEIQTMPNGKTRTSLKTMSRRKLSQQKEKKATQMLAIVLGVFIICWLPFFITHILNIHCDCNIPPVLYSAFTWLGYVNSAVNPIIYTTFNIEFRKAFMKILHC

Molecule | 5-HT syndrome ED50 FBP (5-HT1A [1]; flat body posture (FBP)) [mg/kg] | 5-HT syndrome ED50 LLR (5-HT1A [1]; lower lip retraction (LLR)) [mg/kg] | 5-HT syndrome ED50 FPT (5-HT1A [1]; reciprocal fore-paw treading (FPT)) [mg/kg] | pKi 5-HT1A (5-HT1A [2]; [3H]8-OH-DPAT, rat cortex, 30 min, 23 °C, mean of at least 3 experimentations) | pKi α1 (α1-adrenergic receptor) | Ki (D2 dopaminergic receptor) [nM] | ED50 [3] [mg/kg] | ED50 (5-HT1A [1]; [4]) [mg/kg] | ED50 (5-HT1A [1]; [5]) [mg/kg] | ED50 (5-HT1A [1]; [6]) [mg/kg] | Ki (5-HT1A [2]) [nM]
5-[4-[4-(5-Chloro-2-methoxyphenyl)-piperazin-1-yl]butoxy]-2-methyl-2H- [1,2,4]triazin-3-one fumarate [Compound 17] | 0.31 | 0.08 | 0.31 | 9.89 | – | – | – | – | – | – | –
Cn1ncc(OCC[C@H]2CC[C@@H]3CN(c4ncccn4)CCN3C2)nc1=O (relative stereo) [Compound 24, trans-2-Methyl-5-[2-(2-pyrimidin-2-yl-octahydropyrido[1,2-a]pyrazin-7-yl)ethoxy]-2H-[1,2,4]triazin-3-one] | – | – | – | – | 6.35 | 2880 | 0.04 | 0.08 | < 0.04 | 0.08 | 0.525
Cn1ncc(OCC[C@H]2CC[C@@H]3CN(c4ncccn4)CCN3C2)nc1=O (single isomer, unassigned) [Compound 26] | – | – | – | – | – | – | 0.04 | < 0.04 | < 0.04 | 0.04 | 0.245
O=C1CC2(CCCC2)CC(=O)N1CCCCN1CCN(c2ncccn2)CC1 [Buspirone, reference compound] | – | – | – | – | 6.19 | – | > 160 | – | – | > 40 | –
Cn1ncc(OCCCCN2CCN(c3ncccn3)CC2)nc1=O [Compound 1, 2-Methyl-5-[4-(4-pyrimidin-2-yl-piperazin-1-yl)butoxy]-2H-[1,2,4]triazin-3-one] | – | – | – | – | 6.25 | 1580 | – | 0.08 | 0.02 | 0.08 | 0.676
Cc1ccnc(N2CCN(CCCCOc3cnn(C)c(=O)n3)CC2)n1.O=C(O)/C=C/C(=O)O [Compound 2, 2-Methyl-5-[4-[4-(4-methylpyrimidin-2-yl)piperazin-1-yl]butoxy]-2H-[1,2,4]triazin-3-one fumarate] | – | – | – | – | 6.11 | 1740 | 0.04 | 0.08 | 0.02 | 0.08 | 0.269
Cc1cc(C)nc(N2CCN(CCCCOc3cnn(C)c(=O)n3)CC2)n1.O=C(O)/C=C/C(=O)O [Compound 3, 5-[4-[4-(4,6-Dimethylpyrimidin-2-yl)piperazin-1-yl]butoxy]-2-methyl-2H-[1,2,4]triazin-3-one fumarate] | – | – | – | – | 6.01 | 1120 | – | 0.08 | 0.08 | 0.08 | 0.275
COc1ccnc(N2CCN(CCCCOc3cnn(C)c(=O)n3)CC2)n1 [Compound 4, 5-[4-[4-(4-Methoxypyrimnidin-2-yl)piperazin-1-yl]butoxy]-2-methyl-2H-[1,2,4]triazin-3-one fumarate] | – | – | – | – | 6.74 | 2240 | – | 0.08 | < 0.04 | 0.08 | 0.138
Cn1ncc(OCCCCN2CCN(c3nccc(Cl)n3)CC2)nc1=O [Compound 6, 5-[4-[4-(4-Chloropyrimidin-2-yl)piperazin-1-yl]butoxy]-2-methyl-2H-[1,2,4]triazin-3-one] | – | – | – | – | 6.25 | 1700 | 0.63 | 0.08 | 0.08 | 0.08 | 0.209
Cn1ncc(OCCCCN2CCN(c3ncc(F)cn3)CC2)nc1=O [Compound 7, 5-[4-[4-(5-Fluoropyrimidin-2-yl)piperazin-1-yl]butoxy]-2-methyl-2H-[1,2,4]triazin-3-one] | – | – | – | – | – | – | – | 0.31 | 0.08 | 0.31 | 0.912
COc1cccnc1N1CCN(CCCCOc2cnn(C)c(=O)n2)CC1 [Compound 15, 5-[4-[4-(3-Methoxypyridin-2-yl)piperazin-1-yl]butoxy]-2-methyl-2H-[1,2,4]triazin-3-one fumarate] | – | – | – | – | – | – | – | – | – | – | 0.263
Cn1ncc(OCCCCN2CCN(c3cccc(Cl)c3)CC2)nc1=O [Compound 16, 5-[4-[4-(3-Chlorophenyl)piperazin-1-yl]Butoxy]-2-methyl-2H-[1,2,4]Triazin-3-one fumarate] | – | – | – | – | – | – | – | – | – | – | 0.0759
COc1ccc(Cl)cc1N1CCN(CCCCOc2cnn(C)c(=O)n2)CC1 [Compound 19, 5-[4-[4-(5-Chloro-2-methoxyphenyl)-piperazin-1-yl]butoxyl-2-methyl-2H-[1,2,4]triazin-3-one fumarate] | – | – | – | – | 8.21 | 15.1 | – | – | – | – | 0.309
Cn1ncc(OCCCCNCC2COc3ccccc3O2)nc1=O (stereo not shown) [Compound 20, 5-[4-((2,3-Dihydrobenzo[1,4]dioxin-2-ylmethyl)amino]butoxyl-2-methyl-2H-[1,2,4]triazin-3-one fumarate] | – | – | – | – | 7.65 | 66.1 | – | 0.08 | < 0.04 | 0.31 | 0.107
Cn1ncc(OCCCCNC[C@@H]2COc3ccccc3O2)nc1=O [Compound 21, (R)-5-[4-[(2,3-Dihydrobenzo[1,4]dioxin-2-ylmethyl)amino]butoxy)-2-methyl-2H-[1,2,4]triazin-3-one fumarate] | – | – | – | – | – | – | – | – | – | – | 0.331
Cn1ncc(OCCCCNC[C@H]2COc3ccccc3O2)nc1=O [Compound 22, (S)-5-[4-[(2,3-Dihydrobenzo[1,4]dioxin-2-ylmethyl)amino]butoxy]-2-methyl-2H-[1,2,4]triazin-3-one fumarate] | – | – | – | – | – | – | – | – | – | – | 0.0339
O=C(NCCN1CCN(c2cccc3c2OC[C@H](CO)O3)CC1)c1ccc(F)cc1 [Flesinoxan, reference compound] | – | – | – | – | 6.50 | – | 1.25 | – | – | – | –
